For eight compounds, IC50 results are on record in patent US6753322B2, “2-aminocarbonyl-9H-purine derivatives” (Pfizer Inc, priority 2000, dated 2004).

SMILES strings stand for the structures. pIC50: −log10 of the molar value. Where only a bound is given, the exact number is not on record here.

For orientation: pIC50 means the IC50 on a negative log10 scale, so that one unit is a factor of ten. Low readings indicate a high IC50, high ones a low IC50.

The assay concerns neutrophils activated by fMLP. The experiment in a line: superoxide production from neutrophils activated by fMLP. The conditions noted are these: Neutrophil; concentration giving 50% inhibition of fMLP-induced superoxide production compared to control response; human peripheral blood neutrophils, cytochalasin B priming, adenosine deaminase present, cytochrome C reduction readout. The format is cell-based. The method, then: This is evaluated by determining the compound profile in an assay where superoxide production was measured from neutrophils activated by fMLP. Neutrophils were isolated from human peripheral blood using dextran sedimentation followed by centrifugation through Ficoll-Hypaque solution. Any contaminating erythrocytes in the granulocyte pellet were removed by lysis with ice-cold distilled water. Superoxide production from the neutrophils was induced by fMLP in the presence of a priming concentration of cytochalasin B. Adenosine deaminase was included in the assay to remove any endogenously produced adenosine that might suppress superoxide production. The effect of the compound on the fMLP-induced response was monitored colorometrically from the reduction of cytochrome C within the assay buffer. The potency of the compounds was assessed by the concentration giving 50% inhibition (IC50) compared to the control response to fMLP.
`CCNC(=O)[C@H]1O[C@@H](n2cnc3c(NCC(c4ccccc4)c4ccccc4)nc(C(=O)N[C@@H]4CCN(C(=O)NC5CCN(c6ccccn6)CC5)C4)nc32)[C@H](O)[C@@H]1O` [Example 27] gave a pIC50 above 7.00.
Consider `CCNC(=O)[C@H]1O[C@@H](n2cnc3c(NCC(c4ccccc4)c4ccccc4)nc(C(=O)N4CC[C@@H](NC(=O)NCCN(C(C)C)C(C)C)C4)nc32)[C@H](O)[C@@H]1O` [Example 28], for which the pIC50 is above 7.00.
Compound `CCNC(=O)[C@H]1O[C@@H](n2cnc3c(NCC(c4ccccc4)c4ccccc4)nc(C(=O)N4CC[C@H](NC(=O)NCCN(C(C)C)C(C)C)C4)nc32)[C@H](O)[C@@H]1O` [Example 29] had a pIC50 above 7.00.
The value for `CCNC(=O)[C@H]1O[C@@H](n2cnc3c(NCC(c4cccc(C)c4)c4cccc(C)c4)nc(C(=O)NCCNC(=O)NCCN(C(C)C)C(C)C)nc32)[C@H](O)[C@@H]1O` [Example 30, 6-{[2,2-Bis(3-methylphenyl)ethyl]amino}-N-{2-[({[2-(diisopropylamino)ethyl]amino}carbonyl)-amino]ethyl}-9-{(2R,3R,4S,5S)-5-[(ethylamino)carbonyl]-3,4-dihydroxytetrahydro-2-furanyl}-9H-purine-2-carboxamide] was above 7.00; that for `CCNC(=O)[C@H]1O[C@@H](n2cnc3c(NCC(c4cccc(Cl)c4)c4cccc(Cl)c4)nc(C(=O)NCCNC(=O)NCCN(C(C)C)C(C)C)nc32)[C@H](O)[C@@H]1O` [Example 31] was above 7.00; that for `CCNC(=O)[C@H]1O[C@@H](n2cnc3c(NCC(c4cccc(Cl)c4)c4cccc(Cl)c4)nc(C(=O)NCCNC(=O)NCCN4CCCCC4)nc32)[C@H](O)[C@@H]1O` [Example 32, 6-{[2,2-Bis(3-chlorophenyl)ethyl]amino}-9-{(2R,3R,4S,5S)-5-[(ethylamino)carbonyl]-3,4-dihydroxytetrahydro-2-furanyl}-N-{2-[({[2-(1-piperidinyl)ethyl]amino}carbonyl)amino]ethyl}-9H-purine-2-carboxamide] was above 7.00.
As for `CCNC(=O)[C@H]1O[C@@H](n2cnc3c(NCC(c4cccc(C)c4)c4cccc(C)c4)nc(C(=O)NCCNC(=O)NCCN4CCCCC4)nc32)[C@H](O)[C@@H]1O` [Example 33], the pIC50 is above 7.00.
In turn, `CCNC(=O)[C@H]1O[C@@H](n2cnc3c(NCC(c4ccccc4)c4ccccc4)nc(C(=O)NCCNC(=O)NCc4ccc(C(=O)O)cc4)nc32)[C@H](O)[C@@H]1O` [Example 34, 4-[({[(2-{[(6-[(2,2-diphenylethyl)amino]-9-{(2R,3R,4S,5S)-5-[(ethylamino)carbonyl]-3,4-dihydroxytetrahydro-2-furanyl}-9H-purine-2-yl)carbonyl]amino}ethyl)amino]carbonyl}-amino)methyl]benzoic acid] showed a pIC50 above 7.00.
